For 69 compounds, log p and Efficacy % results are on record in US20130012546A1 (priority 2009, published 2013).

Tested on in the first data set: not listed separately
In words: logP(HCOOH) by HPLC. Type of data set: physicochemical. To be noted: HPLC on reversed phase columns, pH 2.7, 0.1% formic acid in water / acetonitrile gradient.
`CC1=C(CC(C)OC(=O)Nc2nc(CON=C(c3ccccc3)c3nnnn3C)cs2)C1(C)C` (centres unmarked) [compound 209] had a log p of 4.68.
Compound `Cn1nnnc1C(=NOCc1csc(NC(=O)OCCCC#C[Si](C)(C)C)n1)c1ccccc1` [compound 228] yielded a log p of 4.71.
On the same count and under the same terms, the result for `CC1=C(CC(C)OCC(=O)Nc2cccc(CON=C(c3ccccc3)c3nnnn3C)n2)C1` (centres unmarked) [compound 223] reads 4.3; that for `CC1=C(CC(C)OCC(=O)Nc2nc(CON=C(c3ccccc3)c3nnnn3C)cs2)C1` (centres unmarked) [compound 219], 4.03.
Same read-out and setting: in the case of `CC1=C(CC(C)OCC(=O)Nc2cccc(CON=C(c3ccccc3)c3nnnn3C)n2)C1(C)C` (centres unmarked) [compound 224] it was 5.14; in that of `CC1CCC(OC(C)C(=O)Nc2cccc(CON=C(c3ccccc3)c3nnnn3C)n2)CC1` (centres unmarked) [compound 198], 4.81; in that of `CC1=C(CC(C)OCC(=O)Nc2nc(CON=C(c3ccccc3)n3nnnc3C)cs2)C1(C)C` (centres unmarked) [compound 216], 4.91.
As for `CC(C)=NOC(C)C(=O)Nc1cccc(CON=C(c2ccccc2)n2nnnc2C)n1` (centres unmarked) [compound 203], the log p is 3.35.
Take `Cn1nnnc1C(=NOCc1csc(NC(=O)CC=COc2ccccc2)n1)c1ccccc1` [compound 220]: the log p was 3.57.
For the compound `CC1=C(CC(C)OCC(=O)Nc2cccc(CON=C(c3ccccc3)n3nnnc3C)n2)C1(C)C` (centres unmarked) [compound 222], the log p is on record as 5.42.
Still for that read-out and setting: in the case of `CC1=C(CC(C)OC(=O)Nc2nc(CON=C(c3ccccc3)n3nnnc3C)cs2)C1` (centres unmarked) [compound 208] it was 4.11; in that of `Cc1nnnn1C(=NOCc1csc(NC(=O)CC=COc2ccccc2)n1)c1ccccc1` [compound 217], 3.61; in that of `CC1=C(CC(C)OCC(=O)Nc2cccc(CON=C(c3ccccc3)n3nnnc3C)n2)C1` (centres unmarked) [compound 221], 4.37.
`Cn1nnnc1C(=NOCc1csc(NC(=O)OC2CCc3ccccc3C2)n1)c1ccccc1` (centres unmarked) [compound 211] gave a log p of 4.14.
Still for that read-out and setting: in the case of `CC1=C(CC(C)OCC(=O)Nc2nc(CON=C(c3ccccc3)c3nnnn3C)cs2)C1(C)C` (centres unmarked) [compound 218] it was 4.83; in that of `CC(=NOCC(=O)Nc1cccc(CON=C(c2ccccc2)n2nnnc2C)n1)C(C)(C)C` [compound 204], 4.34; in that of `CC1=C(CC(C)OC(=O)Nc2nc(CON=C(c3ccccc3)n3nnnc3C)cs2)C1(C)C` (centres unmarked) [compound 207], 4.86.
As for `CCC(OC1CCCC1)C(=O)Nc1cccc(CON=C(c2ccccc2)c2nnnn2C)n1` (centres unmarked) [compound 196], the log p came out at 4.51.

Still in this data set, the particulars now being: HPLC on reversed phase columns, pH 2.7, 0.1% formic acid in water / acetonitrile, linear gradient 10% to 95% acetonitrile; EEC directive 79/831 Annex V.A8.
`CON=C(C(=O)Nc1nc(CON=C(c2ccccc2)n2nnnc2C)cs1)c1ccc(Cl)cc1` [Example 28]: the log p stood at 4.32.
Compound `CC(OC1CCCCCC1)C(=O)Nc1nc(CON=C(c2ccccc2)c2nnnn2C)cs1` (centres unmarked) [Example 95] had a log p of 4.51.
On the same count and under the same terms, in the case of `Cc1nnnn1C(=NOCc1cccc(NC(=O)C(C)OC2CCCCC2)n1)c1ccccc1` (centres unmarked) [compound 182] it was 4.46.
On the same count and under the same terms, the result for `C=CCCCOCC(=O)Nc1cccc(CON=C(c2ccccc2)n2nnnc2C)n1` [compound 112] reads 3.83; that for `CC1CCC(OC(C)C(=O)Nc2nc(CON=C(c3ccccc3)c3nnnn3C)cs2)CC1` (centres unmarked) [compound 178], 4.44; that for `Cc1nnnn1C(=NOCc1cccc(NC(=O)C(C)OC2CCCC(C)C2)n1)c1ccccc1` (centres unmarked) [compound 190], 4.96.
In the case of `CCON=C(C(=O)Nc1nc(CON=C(c2ccccc2)c2nnnn2C)cs1)c1ccc(Cl)cc1` [compound 128], the log p was 4.56.
For `Cn1nnnc1C(=NOCc1cccc(NC(=O)OCCC2CCCC2)n1)c1ccccc1` [compound 160], the log p amounted to 4.61.
On the same count and under the same terms, in the case of `Cn1nnnc1C(=NOCc1csc(NC(=O)OCC2CCCC2)n1)c1ccccc1` [Example 74] it was 3.92.
In turn, `Cc1nnnn1C(=NOCc1csc(NC(=O)OCCCC2CCCC2)n1)c1ccccc1` [Example 65] came in with a log p of 4.77.
In turn, `Cc1nnnn1C(=NOCc1cccc(NC(=O)OC(C)C2CCCC2)n1)c1ccccc1` (centres unmarked) [compound 158] registered a log p of 4.71.
Compound `CON=C(C(=O)Nc1cccc(CON=C(c2ccccc2)c2nnnn2C)n1)c1ccc(C)cc1` [compound 138] displayed a log p of 4.27.
The same measure, in the same setting: in the case of `Cc1nnnn1C(=NOCc1csc(NC(=O)OCC2CCCC2)n1)c1ccccc1` [Example 66] it was 3.99; in that of `Cc1nnnn1C(=NOCc1cccc(NC(=O)C(C)OC2CCCCCC2)n1)c1ccccc1` (centres unmarked) [compound 184], 4.86; in that of `Cc1nnnn1C(=NOCc1cccc(NC(=O)OC(C)C2CCCCC2)n1)c1ccccc1` (centres unmarked) [compound 157], 5.08.
The same measure, in the same setting: the result for `Cc1nnnn1C(=NOCc1cccc(NC(=O)C(C)OC2CCCC2)n1)c1ccccc1` (centres unmarked) [compound 183] reads 4.12; that for `Cn1nnnc1C(=NOCc1csc(NC(=O)OCCCC2CCCC2)n1)c1ccccc1` [Example 73], 4.7.
The same measure, in the same setting: the result for `CON=C(C(=O)Nc1cccc(CON=C(c2ccccc2)n2nnnc2C)n1)c1ccc(Cl)cc1` [compound 132] reads 4.69; that for `CON=C(C(=O)Nc1nc(CON=C(c2ccccc2)n2nnnc2C)cs1)c1ccc(C)cc1` [compound 125], 3.85.
In turn, `CCON=C(C(=O)Nc1nc(CON=C(c2ccccc2)n2nnnc2C)cs1)c1ccc(C)cc1` [compound 126] showed a log p of 4.13.
On the same count and under the same terms, the result for `C#CCOC(CC)C(=O)Nc1nc(CON=C(c2ccccc2)n2nnnc2C)cs1` (centres unmarked) [compound 115] reads 3.11.
`Cc1nnnn1C(=NOCc1cccc(NC(=O)C(C)OC2CCC2)n1)c1ccccc1` (centres unmarked) [compound 185] gave a log p of 3.74.
In turn, `CC(OC(=O)Nc1nc(CON=C(c2ccccc2)c2nnnn2C)cs1)C1CCCCC1` (centres unmarked) [compound 151] yielded a log p of 4.58.
Still for that read-out and setting: in the case of `Cc1nnnn1C(=NOCc1cccc(NC(=O)OCCC2CC2)n1)c1ccccc1` [compound 155] it was 3.81; in that of `CCON=C(C(=O)Nc1nc(CON=C(c2ccccc2)n2nnnc2C)cs1)c1ccc(C)cc1` [compound 127], 4.49.
Still for that read-out and setting: the result for `CC(OC1CCCCC1)C(=O)Nc1nc(CON=C(c2ccccc2)c2nnnn2C2CC2)cs1` (centres unmarked) [compound 164] reads 4.53.
`CCC(OC1CCCC1)C(=O)Nc1nc(CON=C(c2ccccc2)n2nnnc2C)cs1` (centres unmarked) [compound 168]: the log p stood at 4.24.
Still for that read-out and setting: the result for `Cc1nnnn1C(=NOCc1csc(NC(=O)OCCCC2CCCCC2)n1)c1ccccc1` [Example 67] reads 5.11; that for `C#CCOC(CC)C(=O)Nc1cccc(CON=C(c2ccccc2)n2nnnc2C)n1` (centres unmarked) [compound 119], 3.33.
`CON=C(C(=O)Nc1nc(CON=C(c2ccccc2)n2nnnc2C)cs1)c1ccc(C)cc1` [compound 124] came in with a log p of 4.13.
The same measure, in the same setting: in the case of `CON=C(C(=O)Nc1cccc(CON=C(c2ccccc2)n2nnnc2C)n1)c1ccc(Cl)cc1` [compound 135] it was 4.51.
In the case of `Cn1nnnc1C(=NOCc1csc(NC(=O)OCCCC2CCCCC2)n1)c1ccccc1` [Example 75], the log p stood at 5.03.
The same measure, in the same setting: in the case of `CCON=C(C(=O)Nc1cccc(CON=C(c2ccccc2)c2nnnn2C)n1)c1ccc(Cl)cc1` [compound 137] it was 4.83.
Same read-out and setting: the result for `CC(OC(=O)Nc1nc(CON=C(c2ccccc2)c2nnnn2C)cs1)C1CCCC1` (centres unmarked) [compound 152] reads 4.25; that for `CCC(OC1CCC1)C(=O)Nc1nc(CON=C(c2ccccc2)n2nnnc2C)cs1` (centres unmarked) [compound 167], 3.83.
On the same count and under the same terms, in the case of `CCC(OC1CCCCCC1)C(=O)Nc1nc(CON=C(c2ccccc2)c2nnnn2C)cs1` (centres unmarked) [compound 176] it was 4.87; in that of `Cc1nnnn1C(=NOCc1cccc(NC(=O)OCCC2CCCC2)n1)c1ccccc1` [compound 156], 4.71; in that of `Cn1nnnc1C(=NOCc1cccc(NC(=O)OCCC2CC2)n1)c1ccccc1` [compound 159], 3.72.
For the compound `CC(OC1CCC1)C(=O)Nc1cccc(CON=C(c2ccccc2)c2nnnn2C)n1` (centres unmarked) [compound 192], the log p came out at 3.7.
Still for that read-out and setting: in the case of `Cc1nnnn1C(=NOCc1csc(NC(=O)OCCCC2CC2)n1)c1ccccc1` [Example 68] it was 3.9.
Still for that read-out and setting: the result for `CCC(OC1CCCCCC1)C(=O)Nc1cccc(CON=C(c2ccccc2)n2nnnc2C)n1` (centres unmarked) [compound 189] reads 5.41.
`Cn1nnnc1/C(=N\OCc1cccc(NC(=O)OCCC2CCCCC2)n1)c1ccccc1` [Example 59] yielded a log p of 5.11.
Still for that read-out and setting: the result for `CC(OC(=O)Nc1cccc(CON=C(c2ccccc2)c2nnnn2C)n1)C1CCCCC1` (centres unmarked) [compound 161] reads 4.98; that for `Cn1nnnc1C(=NOCc1csc(NC(=O)OCCCC2CC2)n1)c1ccccc1` [Example 76], 3.85.
The same measure, in the same setting: in the case of `CCC(OC1CCCCC1)C(=O)Nc1nc(CON=C(c2ccccc2)c2nnnn2C)cs1` (centres unmarked) [compound 173] it was 4.42.
Compound `C#CCOC(C(=O)Nc1cccc(CON=C(c2ccccc2)n2nnnc2C)n1)C(C)C` (centres unmarked) [compound 120] registered a log p of 3.7.
On the same count and under the same terms, the result for `CON=C(C(=O)Nc1cccc(CON=C(c2ccccc2)n2nnnc2C)n1)c1ccc(C)cc1` [compound 134] reads 4.44.
The same measure, in the same setting: in the case of `CON=C(C(=O)Nc1nc(CON=C(c2ccccc2)c2nnnn2C)cs1)c1ccc(C)cc1` [compound 130] it was 3.79.
Take `CCC(OC1CCC1)C(=O)Nc1cccc(CON=C(c2ccccc2)n2nnnc2C)n1` (centres unmarked) [compound 187]: the log p amounted to 4.2.

A further data set concerns Phytophthora infestans.
Test: not given
The class given is in vivo. To be noted: tomato plants, preventive spray, 100 ppm of active ingredient, evaluated 7 days after inoculation.
`CON=C(C(=O)Nc1nc(CON=C(c2ccccc2)n2nnnc2C)cs1)c1ccc(Cl)cc1` [Example 28] had an Efficacy % of 80%.
The compound `CC(OC1CCCCCC1)C(=O)Nc1nc(CON=C(c2ccccc2)c2nnnn2C)cs1` (centres unmarked) [Example 95] returned an Efficacy % of 95%.
Still for that read-out and setting: in the case of `Cn1nnnc1C(=NOCc1csc(NC(=O)OC2CC3CCC2(C)C3(C)C)n1)c1cccc(F)c1` (centres unmarked) [Example 105] it was 80%.
On the same count and under the same terms, in the case of `Cn1nnnc1C(=NOCc1csc(NC(=O)OC2CC3CCC2(C)C3(C)C)n1)c1ccccc1` (centres unmarked) [Example 104] it was 93%.
